{"source": "patent US20100215625A1", "about": "“EFFICIENT PREPARATION OF NAPHTHOQUINONE ANTICANCER ACTIVE INGREDIENTS” (TAHEEBO JAPAN CO., LTD., priority 2009, published 2010)", "key": {"various tumor cells": {"tested_on": "various tumor cells", "settings": "known from Patent Documents 1, 2 and Nonpatent Document 1; cited from earlier work"}, "[1]": {"tested_on": "A-549 cells (lung cancer cells)", "assay": "Cytotoxicity experiment 1: anticancer activity against A-549 cells, viable cell count after 3 days", "settings": "Homo sapiens, A549, 72 h, read-out: Cell Viabilities (%) of A-549 (Lung Cancer Cells)", "procedure": "A-549 cells (lung cancer cells; Strain No. ECACC86012804; available from Laboratory Products Dept. of Dainippon Pharmaceuticals Inc. (now Dainippon Sumitomo Pharma Co., Ltd.)) were preliminarily seeded in 35 mm petri dishes containing Dulbecco's modified Eagle medium (DMEM) containing 20% of fetal bovine serum (FBS) in a concentration of 1×10^5/ml. The seeded cells were incubated at 36° C. for 1 day under 5% CO2 and were confirmed to be stuck at the bottom of the petri dishes. The resulting A-549 cells were divided into three groups, to the first group of which were added extracts from a medium used in the ingredient-production system in concentrations of 1, 10, 100 and 1000 μg/ml, to the second group of which was added NQ801 which was known to have an anticancer activity (see Patent Document 2) in said concentrations, and to the third group of which were added ether fractions extracted from Tabebuia avellanedae barks in a conventional manner in said concentrations. These groups were incubated at 36° C. for 3 days, and viable cells were counted and viabilities were calculated."}, "[2]": {"tested_on": "MCF-7 cells (breast cancer cells)", "assay": "Cytotoxicity experiment 2: anticancer activity against MCF-7 cells, viable cell count after 3 days", "settings": "Homo sapiens, MCF7, 72 h, read-out: Cell Viabilities (%) of MCF-7 (Breast Cancer Cells)", "procedure": "A-549 cells (lung cancer cells; Strain No. ECACC86012804; available from Laboratory Products Dept. of Dainippon Pharmaceuticals Inc. (now Dainippon Sumitomo Pharma Co., Ltd.)) were preliminarily seeded in 35 mm petri dishes containing Dulbecco's modified Eagle medium (DMEM) containing 20% of fetal bovine serum (FBS) in a concentration of 1×10^5/ml. The seeded cells were incubated at 36° C. for 1 day under 5% CO2 and were confirmed to be stuck at the bottom of the petri dishes. […] These groups were incubated at 36° C. for 3 days, and viable cells were counted and viabilities were calculated.\nCytotoxicity experiments for MCF-7 cells (breast cancer cells; Strain No. ECACC86012803; available from Laboratory Products Dept. of Dainippon Pharmaceuticals Inc. (now Dainippon Sumitomo Pharma Co., Ltd.)) were carried out in the similar manner to the Experiment 1."}}, "data": [{"compound": "C[C@H](O)c1cc2c(o1)C(=O)c1cccc(O)c1C2=O", "note": "[NQ801, (S)-2-(1-hydroxyethyl)-5-hydroxynaphtho[2,3-b]furan-4,9-dione]", "values": [{"measurement": "Cytotoxicity against various tumor cells", "setting": "various tumor cells", "value": "potent cytotoxicity"}, {"measurement": "viability at 1 µg/mL", "setting": "[1]", "value": 90, "unit": "%"}, {"measurement": "viability at 10 µg/mL", "setting": "[1]", "value": 60, "unit": "%"}, {"measurement": "viability at 100 µg/mL", "setting": "[1]", "value": 30, "unit": "%"}, {"measurement": "viability at 1000 µg/mL", "setting": "[1]", "value": 0, "unit": "%"}, {"measurement": "viability at 1 µg/mL", "setting": "[2]", "value": 90, "unit": "%"}, {"measurement": "viability at 10 µg/mL", "setting": "[2]", "value": 60, "unit": "%"}, {"measurement": "viability at 100 µg/mL", "setting": "[2]", "value": 20, "unit": "%"}, {"measurement": "viability at 1000 µg/mL", "setting": "[2]", "value": 0, "unit": "%"}]}]}
